Here are results for six compounds from ChEMBL document CHEMBL1201862, “PubChem BioAssay data set” (2004).

Test systems include 786-0; A498; ACHN; CAKI-1; CCRF-CEM; COLO 205; HCT-116; HT-29; LOX IMVI; MDA-N; OVCAR-8; PC-3; SF-268; SK-MEL-28; SK-MEL-2; SNB-75; SR; SW-620; TK-10; UACC-62.
Experiment in all cases: NCI-60 cell line screen, 48 h

Each structure is given as a SMILES string.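 Five compound concentrations were applied to cells in 96-well plates for 48 hours; endpoints were derived by simple linear interpolation of the resulting dose-response curve. GI50 marks 50% less growth.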 Activity calls are given as the source filed them. Cut-off read from the data, not from the text of the source: active = GI50 up to about 1.1 µM and inactive = higher. A value given as a limit tells only on which side of the number the result lay.

For the compound `CN(C)CCC(=O)N1C/C(=C/c2ccccc2)C(=O)/C(=C\c2ccccc2)C1`, the GI50 was 1.49 µM (inactive) with 786-0; 3.12 µM (inactive) in the test with A498; 2.01 µM (inactive) with ACHN; 2.41 µM (inactive) in the test on CAKI-1; 0.191 µM (active) in the test on CCRF-CEM; 2.24 µM (inactive) in the test on COLO 205. Besides, the GI50 with HCT-116 was 0.447 µM (active); in the test with HT-29, 0.679 µM (active); in the test with LOX IMVI, 0.436 µM (active); in the test on MDA-N, 1.14 µM (inactive); in the test with OVCAR-8 it was 1.03 µM (active); with PC-3 it was 1.54 µM (inactive). The GI50 with SF-268 was 2.74 µM (inactive); in the test on SK-MEL-28 it was 1.58 µM (inactive); in the test on SK-MEL-2 it was 2.95 µM (inactive); in the test with SNB-75, 4.74 µM (inactive); with SR, 0.386 µM (active); in the test with SW-620, 0.275 µM (active). The values for the GI50 in the test with TK-10 and with UACC-62 were 8.15 µM (inactive) and 1.53 µM (inactive), respectively.

Regarding `NC1CCC(c2cc3ccccc3s2)(N2CCCCC2)CC1` (stereo not given), the GI50 is 1.5 µM (inactive) with 786-0; 9.29 µM (inactive) with A498; 3.41 µM (inactive) in the test with ACHN; 2.57 µM (inactive) in the test on CAKI-1; 1.01 µM (active) in the test with CCRF-CEM; 1.58 µM (inactive) with COLO 205. Further, the GI50 is 1.69 µM (inactive) in the test on HCT-116; 1.21 µM (inactive) in the test with HT-29; 1.51 µM (inactive) in the test on LOX IMVI; 1.74 µM (inactive) in the test with MDA-N; 1.72 µM (inactive) in the test with OVCAR-8; 1.55 µM (inactive) in the test with PC-3. Also, the GI50 was 3.57 µM (inactive) in the test on SF-268; 1.58 µM (inactive) in the test on SK-MEL-28; 1.55 µM (inactive) in the test on SK-MEL-2; 10.5 µM (inactive) in the test with SNB-75; 1.54 µM (inactive) in the test on SR; 1.61 µM (inactive) in the test on SW-620. Moreover, the GI50 in the test on TK-10 was 5.78 µM (inactive); with UACC-62, 2.47 µM (inactive).

For the compound `N=C1C(=N)c2ccccc2-c2ccccc21`, the GI50 in the test with 786-0 was 2.09 µM (inactive); in the test on A498 it was 2.24 µM (inactive); with ACHN, 1.41 µM (inactive); with CAKI-1, 1.71 µM (inactive); in the test with CCRF-CEM, 0.376 µM (active); with COLO 205, 1.73 µM (inactive). In addition, the GI50 in the test on HCT-116 is 0.384 µM (active); in the test on HT-29, 1.83 µM (inactive); with LOX IMVI, 0.31 µM (active); with MDA-N, 0.177 µM (active); in the test on OVCAR-8, 1.03 µM (active); in the test on PC-3, 1.52 µM (inactive). Further, the GI50 with SF-268 is 2.1 µM (inactive); with SK-MEL-28, 1.35 µM (inactive); in the test with SK-MEL-2, 1.55 µM (inactive); in the test with SNB-75 it was 1.82 µM (inactive); in the test with SR it was 0.695 µM (active); with SW-620 it was 1 µM (active). Further, the GI50 in the test with TK-10 was 1.65 µM (inactive); in the test with UACC-62, 1.39 µM (inactive).

For `N#CC(c1ccccc1)N(CCc1ccccc1)C(=O)Oc1ccccc1` (stereo not given), the GI50 in the test with 786-0, in the test on A498, with ACHN, in the test on CAKI-1, in the test with CCRF-CEM and with COLO 205 was > 100 µM (inactive) in each case. For the same compound, the GI50 with HCT-116, in the test with HT-29, with LOX IMVI, in the test on MDA-N, with OVCAR-8 and in the test on PC-3 was > 100 µM (inactive) throughout. For the same compound, the GI50 was > 100 µM (inactive) with SF-268; > 100 µM (inactive) with SK-MEL-28; > 100 µM (inactive) in the test with SK-MEL-2; 25.6 µM (inactive) with SNB-75; > 100 µM (inactive) with SR; > 100 µM (inactive) in the test with SW-620. The GI50 in the test on TK-10 and in the test with UACC-62 was > 100 µM (inactive) throughout.

For the compound `C=CCOc1ccc(C(=N/NC(=O)c2ccccc2)/N=N/c2ccc([N+](=O)[O-])cc2)cc1OC`, the GI50 with 786-0, with A498, in the test with ACHN, in the test with CAKI-1, with CCRF-CEM and with COLO 205 was > 100 µM (inactive) throughout. Also, the GI50 with HCT-116 is 58.6 µM (inactive); in the test with HT-29, > 100 µM (inactive); in the test with LOX IMVI it was 82.6 µM (inactive); in the test on MDA-N, > 100 µM (inactive); in the test on OVCAR-8, > 100 µM (inactive); in the test on PC-3, > 100 µM (inactive). In addition, the GI50 in the test with SF-268, in the test on SK-MEL-28, in the test on SK-MEL-2, in the test on SNB-75, in the test on SR and in the test with SW-620 was > 100 µM (inactive) each time. Further, the GI50 in the test on TK-10 and with UACC-62 was > 100 µM (inactive) each time.

As to `O=C1CSC(=S)N1/N=C/c1ccc(Cl)c([N+](=O)[O-])c1`, the GI50 in the test on 786-0 was 38.6 µM (inactive); with A498, 61 µM (inactive); in the test with ACHN, 23.3 µM (inactive); in the test on CAKI-1 it was 33.7 µM (inactive); in the test with CCRF-CEM it was 7.35 µM (inactive); in the test on COLO 205, 43.7 µM (inactive). In addition, the GI50 with HCT-116 was 23 µM (inactive); in the test with HT-29, 39.6 µM (inactive); in the test on LOX IMVI, 22.2 µM (inactive); in the test on MDA-N, 22.4 µM (inactive); in the test on OVCAR-8, 32.9 µM (inactive); in the test on PC-3 it was 24.6 µM (inactive). Further, the GI50 in the test with SF-268 was 19.6 µM (inactive); with SK-MEL-28 it was 27.5 µM (inactive); in the test with SK-MEL-2, 29.8 µM (inactive); with SNB-75 it was 45 µM (inactive); in the test on SR, 22.5 µM (inactive); in the test on SW-620, 33.7 µM (inactive). The figures for the GI50 with TK-10 and in the test with UACC-62 were 53.5 µM (inactive) and 25.9 µM (inactive), respectively.
